Article PMC13021670, “Novel small molecule targeting PgQC reduces Porphyromonas gingivalis virulence” (Frontiers in Oral Health, 2026)

Molecular target: T1, P. gingivalis glutaminyl cyclase (PgQC) (Porphyromonas gingivalis, UniProt Q7MT37)
T1 construct: gene PG_2157; Recombinant P. gingivalis glutaminyl cyclase
Assay: fluorogenic enzyme assay with H-Gln-AMC, recombinant purified PgQC ([…]), fit to competitive inhibition
Assay type: biochemical

T1 sequence (Q7MT37 entry or part of it): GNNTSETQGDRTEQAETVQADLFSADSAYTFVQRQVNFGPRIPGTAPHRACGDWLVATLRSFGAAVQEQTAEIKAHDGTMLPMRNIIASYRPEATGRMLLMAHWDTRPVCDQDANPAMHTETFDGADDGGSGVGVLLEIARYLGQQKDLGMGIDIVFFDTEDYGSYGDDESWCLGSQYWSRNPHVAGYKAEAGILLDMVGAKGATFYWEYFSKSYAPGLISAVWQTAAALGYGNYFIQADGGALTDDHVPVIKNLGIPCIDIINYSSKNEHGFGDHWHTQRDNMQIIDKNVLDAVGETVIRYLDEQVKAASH

SMILES: N=C(N)NCCOc1ccc(CNc2cnc3nc[nH]c3c2)cc1 [S-0636, 1-(2-(4-((lmidazo[4,5-b]pyridin-6-ylamino)methyl)-phenoxy)ethyl)guanidine]
- Ki: 14 nM
